Assay results as given in patent publication US11644474B2, “Use of macimorelin in assessing growth hormone deficiency in children” (Æterna Zentaris GmbH, priority 2020, dated 2023).
Values joined by “and” are separate entries in the source; they are usually repeats but may differ in a detail not shown here. Equal values may be shown once. “Also recorded” adds a separate entry of the source. Read-outs that look alike come from different tables or passages of the source.

What was measured:
Assay type in all cases: in vivo, human (paediatric subjects with suspected GHD)
[1] = Macimorelin plasma pharmacokinetics after single oral dose (Study AEZS-130-P01); details: for half-life: read-out: mean elimination half-life (converted); for Cmax: n=8 children; for AUC(0-t): read-out: mean AUC0-6 of macimorelin
Protocol: (§1) This was an open-label, group comparison, dose escalation trial to investigate the safety, tolerability, pharmacokinetics and pharmacodynamics of single-dose 0.25, 0.5, and 1 mg/kg oral macimorelin acetate in paediatric subjects with suspected GHD. The macimorelin GHST was administered between two standard GHST, conducted as per local clinical practice, with a recovery period of 7-28 days between tests. For the purposes of obtaining a detailed macimorelin PK profile in children, blood samples were collected pre-dose (±15 min) and 15, 30, 45, 60, 90, 120, and 360 minutes after macimorelin acetate intake.
(§2) The main features of Study P01 are summarized as follows: • Sequential cohorts of trial participants received macimorelin at ascending single oral doses: 0.25 mg/kg body weight in Cohort 1 (C1), 0.5 mg/kg body weight in Cohort 2 (C2), and 1 mg/kg body weight in Cohort 3 (C3). • For determination of macimorelin PK/PD: blood sampling at pre-dose, then 15, 30, 45, 60, 90, 120, and 360 minutes after the administration of macimorelin. • Two standard GHSTs (sGHSTs) had to be performed in a patient according to local practice. The related sGHST agents were considered as ‘background’ and not as IMPs. (Accepted test agents: insulin (insulin tolerance test or ITT), arginine, arginine/growth hormone releasing hormone (GHRH), clonidine, glucagon, L-dopa). Results
Macimorelin plasma concentrations: the analysis of plasma samples for macimorelin concentration was carried out at a central laboratory, Prolytic GmbH, Germany, using a validated liquid chromatography-mass spectrometry (LCMS/MS) method with a detection limit of 0.2 ng/mL (Franz, 2005).
Preliminary pharmacokinetics (PK) were determined by: time of maximum measured concentration (tmax) and maximum concentration (Cmax) of macimorelin plasma concentrations in the sampling period.

GH secretion = experiment: Macimorelin growth hormone stimulation test (GHST): serum GH after oral macimorelin (PD); details: for Peak GH after Macimorelin GHST: individual patients, serum
Protocol: as §1, §2
GH serum concentration: the analysis of serum samples for GH concentration was carried out at a central laboratory by a validated immunochemiluminometric assay (IDS-iSYS Human Growth Hormone (hGH), Immunodiagnostic Systems Ltd [UK]) (Manolopoulou et al., 2012). This assay is standardized to the recombinant growth hormone calibration standard WHO 98/574, and complies with recommendations on assay standardization as outlined by Clemmons (Clemmons, 2011).
The analytical laboratory applied for GH was: Central Laboratory Synevo Łódź, Krakusa Str. 28, 93-515 Łódź. Poland. The lower limit of quantification was <0.05 ng/mL.

[2] = Safety and tolerability of single oral macimorelin (adverse events, questionnaires, safety laboratory, ECG); details: all three dosing cohorts, 0.25-1 mg/kg single oral dose; for safety and tolerability: questionnaires, safety laboratory, ECG
Protocol: as §1

[3] = human, C1, 0.25 mg/kg single oral dose, plasma
[4] = human, C2, 0.5 mg/kg single oral dose, plasma
[5] = human, C3, 1 mg/kg single oral dose, plasma

CC(C)(N)C(=O)N[C@H](Cc1c[nH]c2ccccc12)C(=O)N[C@H](Cc1c[nH]c2ccccc12)NC=O [macimorelin]
change of macimorelin AUC with dose ([1]; 0.25, 0.5, 1 mg/kg oral): increased with dose; also recorded: dose-dependent increase; also recorded: increases with the macimorelin dose | change of macimorelin Cmax with dose ([1]; 0.25, 0.5, 1 mg/kg oral): dose-dependent increase; also recorded: dose-proportional increase | change of macimorelin plasma concentrations with dose ([1]; 0.25, 0.5, 1 mg/kg oral, FIG. 1): dose-dependent increase with high inter-individual variability | time at which maximum plasma concentrations for macimorelin were mainly observed ([1]; all cohorts, 0.25-1 mg/kg oral): 30 to 45 min | half-life ([1]; human, plasma, C1, 0.25 mg/kg single oral dose): 1.22 h | half-life ([1]; human, plasma, C2, 0.5 mg/kg single oral dose): 1.61 h | half-life ([1]; human, plasma, C3, 1 mg/kg single oral dose): 1.71 h | Tmax ([1]; human, plasma, all three groups C1-C3, 0.25-1 mg/kg oral): 0.5 to 0.75 h | Cmax [1, 3]: 3.46 ng/mL | AUC(0-t) [1, 3]: 6.69 ng·h/mL | Cmax [1, 4]: 8.13 ng/mL | AUC(0-t) [1, 4]: 18 ng·h/mL | Cmax [1, 5]: 12.9 ng/mL | AUC(0-t) [1, 5]: 30.9 ng·h/mL | time within which peak GH levels were observed (GH secretion; C1, 0.25 mg/kg oral): 0.5 to 1 h | mean Tmax of peak GH (GH secretion; C1, 0.25 mg/kg oral (SD 11.3)): 0.875 h | Peak GH after Macimorelin GHST (GH secretion; C1, 0.25 mg/kg oral): 8.61 ng/mL and 0.51 ng/mL and 21.73 ng/mL and 5.22 ng/mL and 10.03 ng/mL and 14.07 ng/mL and 9.78 ng/mL and 8.38 ng/mL | time within which peak GH levels were observed (GH secretion; C2, 0.5 mg/kg oral): 0.25 to 1 h | mean Tmax of peak GH (GH secretion; C2, 0.5 mg/kg oral (SD 13.9)): 0.625 h | Peak GH after Macimorelin GHST (GH secretion; C2, 0.5 mg/kg oral): 5.06 ng/mL and 20.73 ng/mL and 7.41 ng/mL and 10.43 ng/mL and 21.36 ng/mL and 16.41 ng/mL and 9.67 ng/mL and 27.42 ng/mL | time within which peak GH levels were observed (GH secretion; C3, 1 mg/kg oral): 0.5 to 0.75 h | mean Tmax of peak GH (GH secretion; C3, 1 mg/kg oral (SD 8.0)): 0.625 h | stimulation of GH secretion (GH secretion; C3, 1 mg/kg oral, 8 patients): stimulated evidently in all 8 patients; also recorded: evident stimulation of GH secretion in all 8 patients | Peak GH after Macimorelin GHST (GH secretion; C3, 1 mg/kg oral): 17.13 ng/mL and 14.46 ng/mL and 59.73 ng/mL and 49.16 ng/mL and 25.07 ng/mL and 14.63 ng/mL and 11.35 ng/mL and 44.73 ng/mL | mean Tmax of GH release (GH secretion; all cohorts C1-C3): 0.5 to 1 h | time of maximum GH release after macimorelin administration (GH secretion; all cohorts C1-C3): 0.25 to 2 h | time at which peak GH levels were mainly observed following macimorelin intake (GH secretion; all three cohorts): 30 to 60 min | adverse events related to macimorelin ([2]; 24 children): none were considered related to the macimorelin test; also recorded: No adverse event was reported in relation to macimorelin | safety and tolerability [2]: excellent safety and tolerability | safety and tolerability ([2]; listed as Macimorelin acetate): safe and well tolerated in all dosing cohorts
